Data published in patent US11576901B2, “Methods for treating viral infection” (HOWARD UNIVERSITY, priority 2016, dated 2023).

Key:
[1] = tested on: HIV1 modified pNL4-3.Luc.R-E-virus; assay: Western assay of HIV p24 gag expression in infected CEM T cells; assay type: cell-based; conditions: Western assay with HIV p24 antibody, FIG. 4
From the text: The ability of a compound in accordance with General Formula 1, including derivatives in accordance with General Formulae 1-1 to 1-20, or pharmaceutically acceptable salts thereof, to inhibit the expression of at least a portion of a virus genome containing an IRES sequence can be also be determined by assessing the expression of a native protein within a viral genome. In some embodiments, the ability of a compound or pharmaceutically acceptable salt to inhibit expression of native protein can be assessed by using antibodies for a protein normally expressed from the virus genome. For example, HIV p24 gag is a protein normally expressed by HIV1 that can be detected using the HIVI p24 antibody. Accordingly, compounds in accordance with General Formula 1, including derivatives in accordance with any of General Formulae 1-1 to 1-20, or pharmaceutically acceptable salts thereof, can be assessed for the ability to inhibit proliferation of the HIV1 by infecting CEM T cells with the HIV1 modified pNL4-3.Luc.R-E-virus and assessing the expression of HIV p24 gag with the HIV p24 antibody. […]
A compound or salt may be wrongly classified as capable of inhibiting expression of at least a portion of a virus genome containing an IRES sequence due to unequal loading of proteins within an assay. […] In some embodiments, equivalent protein loading can be assessed by ponceau staining. […]

HSV-1 = assay: Plaque forming assay, Hep-2 cell monolayers infected with HSV-1; assay type: cell-based; conditions: Hep-2 cells, 100 μM
Description: The ability of a virus to infect cells can be assessed using a plaque assay. In a plaque assay, an infected cell culture is grown under a nutrient gel. During culturing, the virus being study infects cells and replicates. However, the spread of virus to other cells is limited by the overlaying nutrient gel. As such, replicated virus released from one infected cell can only infect neighboring cells. The spread of virus amongst neighboring cells creates a plaque that can be visualized by staining. By counting the visible plaques, the amount of plaque forming units (pfu) per mL can be determined. If cells treated with a compound display a reduced amount of pfu compared to cells not treated with the compound after being infected with same amount of viral particles, then the reduction in pfu would have to be result of the ability of the […] virus. Thus, the ability of a compound in accordance with General Formula 1, including derivatives in accordance with any of General Formulae 1-1 to 1-20, to inhibit the ability of HSV-1 to proliferate can be assessed with a plaque assay.
Hep-2 cell monolayers were placed in well plates. The plated Hep-2 cells were treated with either DSMO as a control, 100 μM SD-29 or 100 μM SD29-12. A total of 6 well plates were prepared for each treatment condition. To each treated well plate an HSV-1 infecting solution comprising 1 mL of supernatants containing of the same amount of serially diluted HSV-1 particles were added. Accordingly, the treated well plates were infected with infection solutions containing the same amount of HSV-1 particles. After adsorption for 2 hours, the medium was removed and the treated cells were washed twice with serum-free DMEM and overlaid with phenol-free DMEM containing 5% FCS, 0.5% low-melting point agarose (GIBCO), and 1% penicillin-streptomycin. After either 0, 6, 12, 24 hours, the plaques present in each treated well plate were stained red and the number of plaques presented counted. Table 1 reports the mean plaque forming unit (pfu) determined for each treated well plate after averaging the number of pfu from the different plates receiving the same treatment.

For `Nn1c(-c2cccc(F)c2)n[nH]c1=S` [5e, 4-amino-5-(3-fluorophenyl)-2,4-dihydro-3H-1,2,4-triazole-3-thione], the melting point was 220 °C.

With `COc1ccc(-c2nnc(SCC(=O)O)n2N)cc1` [SD-29-12] the “expression of HIV p24 gag” value [1] was “does not inhibit expression of HIV p24 gag”, the “mean plaque forming unit (pfu)” value (HSV-1; 0 hpi) was 0 pfu and the “mean plaque forming unit (pfu)” value (HSV-1; 6 hpi) was 380 pfu. For the same compound, the “mean plaque forming unit (pfu)” value (HSV-1; 12 hpi) was 3600 pfu and the “mean plaque forming unit (pfu)” value (HSV-1; 24 hpi) was 2600000 pfu.
